In patent US12351602B2, “Methods of inactivating viral contaminants” (Ichnos Sciences SA, priority 2017, dated 2025):

Test system: MLV
Experiment: VRV study, Arginine treatment of PA eluate
Method: Based on the stability and activity studies reported in Example 1, the most promising viral inactivation methods were further tested for their ability to inactivate viruses. The effectiveness of the viral inactivation was evaluated by doing a spiking study at Bioreliance. Test samples were taken before and after each treatment and analyzed for viral titre. First, VRV study on Arginine treatment was carried out.
Only one virus, MLV, which is a typical model virus used for biological products derived from CHO cell lines such as monoclonal antibody, was used for this study. A total of 7 runs were performed. PA eluate from development runs was used as starting material. Different stock buffers of Arginine at the different pH (pH 4.0, pH 4.75, pH 4.79 and pH 5.5) were used to reach the target pH and concentration. The samples were neutralized using 250 mM Histidine pH 12.0 buffer around pH 6.0 to stop the reaction.
Log reduction values was calculated with respect to the neutralized load sample, a 5 plate large volume plating as well as a standard titration was performed on the t=60 min sample. The neutralized load hold sample was held at 16.0° C. to 20.0° C. for 60 minutes (runs 2, 4 and 6) or 120 minutes (runs 1, 3, 5 and 7).

N=C(N)NCCC[C@H](N)C(=O)O [Arginine]
virus clearance (Arginine treatment at pH 4.0): effective (“effective”, when RF is greater than 4 log10)
log10 reduction factor (Run 5, Arginine concentration 0.38, pH 4.79, 120 min): no reduction
log10 reduction factor (Run 7, Arginine concentration 0.8, pH 5.5, 120 min): no reduction
